The conditions of the series: human, in vivo.

Marks after values point to notes of the source that are not given here.

For β-galacto-oligosaccharides [β-GOS], the “Abdominal noises F (frequency of the symptoms)” value was 1.8 ^b, the “Abdominal noises I (intensity of the symptoms)” value is 1.6 ^ab, the “Abdominal pain F (frequency of the symptoms)” value is recorded as 1.6 ^ab and the “Abdominal pain I (intensity of the symptoms)” value is listed as 1.5 ^ab. Moreover, the “Bloating F (frequency of the symptoms)” value is on record as 1.6 ^ab, the “Bloating I (intensity of the symptoms)” value is recorded as 1.7 ^b, the Cumulative grade was 21.3 ^b and the “Flatulence F (frequency of the symptoms)” value is recorded as 2.9 ^b. The “Flatulence I (intensity of the symptoms)” value is reported as 2.5 ^b, the “Nausea F (frequency of the symptoms)” value was 1.2 ^a, the “Nausea I (intensity of the symptoms)” value was 1.1 ^a and the “Need to defecate F (frequency of the symptoms)” value is listed as 2.1 ^a. The “Need to defecate I (intensity of the symptoms)” value is 1.7 ^a.

Source of the values: patent US10258659B2, “Water soluble defructosylated pea extract, and use thereof as a prebiotic agent” (OLYGOSE, priority 2009, dated 2019).
